Assay results published in patent publication US20210393856A1, “COMPOSITIONS AND METHODS FOR REDUCING CALCIFICATION OF HEART VALVES” (Arizona Board of Regents on Behalf of the University of …, priority 2018, published 2021).

Legend:
AVM cultures = assay: Effects of adenosine and adenosine receptor agonists on Runx2 expression in AVM cultures (qPCR); type: cell-based, mouse; details: for expression of Runx2 compared to control cultures: up to 5 days, FIG. 12
Excerpt: Expression was normalized to GAPDH. Average of 3 independent repeats with SEM.
Runx2 expression increases in calcifying AVM cells with time in culture. Cells treated with either 2′-MeCCPA (A1 agonist) or PSB0777 (A2a agonist) up to 5 days.
Adenosine levels were confirmed using HPLC.

mouse VIC = assay: Osteogenic markers after mouse VIC incubation with adenosine receptor agonists; type: cell-based; details: mouse VIC / AVM cell cultures, FIG. 8
calcifying AVM cells = assay: Runx2-II and Mgp in calcifying AVM cells in the presence of AMP; type: cell-based, mouse; details: FIG. 9
AVM cell cultures = assay: qPCR measurement of osteogenic marker expression by AVM cell cultures (ATP, PO4, CD73); type: cell-based, mouse
Excerpt: (§1) Over 5 days, exposure to this concentration of ATP is apoptotic as measured by the ratio of Bax/Bcl2, and this may contribute to calcification.

valve cell cultures = assay: Apoptosis measured by the ratio of Bax/Bcl2 in valve cell cultures; type: cell-based; details: 100 μM, over 5 days
Excerpt: as §1

[1] = tested on: Alkaline phosphatase (ALP); details: aortas incubated in osteogenic medium (Zukowska et al., 2017); cited from earlier work
[2] = tested on: calcifying AVM cell cultures; assay: Runx2 isoform and osteogenic marker expression in calcifying AVM cell cultures with various treatments; type: cell-based, mouse
Description: Embryonic precursors of valvular interstitial cells (VICs) calcify when grown as tissue culture aggregates similar to micromass cultures of limb cells developed by (Ahrens et al., 1977). A mouse fetal VIC cell line (AVM cells) obtained from the Immortamouse (gift of Kai Jiao, UAB) were used to investigate calcification. These cells express a temperature sensitive Large T antigen and are immortal at 33° C. and revert to a valvular phenotype at 37° C.
The cell and organ culture models described above are used to study valve calcification by staining and expression of osteogenic markers. […] Both Runx2 isoform levels are elevated concomitant with calcification in vitro and in situ. To explore the relationship between identified regulators and markers of the osteogenic program in calcifying valve tissues, Runx2 isoform and osteogenic marker expression was measured in calcifying AVM cell cultures with various treatments. AVM cultures were treated with siRNA against Runx2-II, noggin (inhibitor of BMP), an anti-TGFβ antibody (against all three isoforms), and DAPT (inhibitor of Notch signaling). […] These indicate that Runx2 is a fairly central player in this calcification process but that Runx2 expression, in these cultures, is independent of TGFβ and BMP signaling.
For cell culture, human and porcine VICs and human valvular endothelial cells (VECs) are used. VICs are expanded from initial culture and stored as aliquots in liquid nitrogen. All experiments are performed with low passage number cells and each cell source is profiled by the UA Genetics Core to confirm and maintain the identity of each cell line. A mouse AV valve mesenchymal cell line (AVM) was obtained from Kai Jao (U. of Ala., Birmingham). These cells were from mice containing a temperature sensitive large T transgene (Immorta-Mouse) and the cells were grown at 33° C. to obtain an immortal cell line (Peng et al., 2017). The cells revert to a cushion/valve phenotype at 37° C. The micromass cultures of Solursh and colleagues (Ahrens et al.,1977) were recapitulated to observe calcification in vitro in this cell system. Calcium deposits became visible by von Kossa staining by 5 days in culture and prominent by day 12 (FIG. 3). […] Marker expression is consistent with a valve calcification phenotype and supports a central role for Runx2 in calcification (FIG. 2). For organ culture of intact valves, fresh aortic pig valves are obtained from the meat lab in the College of Agriculture and incubated on the surface of collagen gels. Experiments compare responses in intact aortic valves and VIC and VEC cell lines. […] Though 19 purinergic receptors are identified in Table 1, those P2Y and P2X receptors that are not found in valve tissues are excluded from further analysis.

micromass cultures = assay: Concentration of adenosine in culture media of micromass cultures after adding recombinant CD73; type: cell-based; design: concentration of adenosine in the culture media: unit not given here; details: 1 μg/ml, approximately 100,000 cells in a dish

C[C@@]1(O)[C@H](O)[C@@H](CO)O[C@H]1n1cnc2c(NC3CCCC3)nc(Cl)nc21 [2′-MeCCPA]
expression of Runx2 compared to control cultures (AVM cultures; 0.1 μM): reduced
induction of osteogenic markers (Runx2 and MGP) (mouse VIC): significant induction

Nc1ncnc2c1ncn2[C@@H]1O[C@H](COP(=O)(O)O)[C@@H](O)[C@H]1O [AMP]
Runx2-II and Mgp (calcifying AVM cells): reduced

Nc1ncnc2c1ncn2[C@@H]1O[C@H](COP(=O)(O)OP(=O)(O)OP(=O)(O)O)[C@@H](O)[C@H]1O [ATP]
osteocalcin and osteopontin (AVM cell cultures; 100 μM added every 12 hr, at 5 days): large increase
apoptosis as ratio of Bax/Bcl2 (valve cell cultures): apoptotic
Alkaline phosphatase (ALP) activity [1]: increased

C[C@H](NC(=O)Cc1cc(F)cc(F)c1)C(=O)N[C@H](C(=O)OC(C)(C)C)c1ccccc1 [DAPT, reference compound]
Runx2 expression [2]: reduced Runx2 expression
expression of other markers (Twist1, Cbfβ, MGP) [2]: upregulated the other markers

O=P(O)(O)O [PO4]
osteogenic markers (AVM cell cultures; added to culture media, at 12 days, FIG. 13): increases

Nc1nc(SCCc2ccc(S(=O)(=O)O)cc2)nc2c1ncn2[C@@H]1O[C@H](CO)[C@@H](O)[C@H]1O [PSB0777]
expression of Runx2 compared to control cultures (AVM cultures; 1 μM): reduced
induction of osteogenic markers (Runx2 and MGP) (mouse VIC): significant induction

Nc1ncnc2c1ncn2[C@@H]1O[C@H](CO)[C@@H](O)[C@H]1O [adenosine]
Runx2 expression (AVM cultures; AVM cultures at 0.35 μM, 3.5 μM and 50 μM adenosine, normalized to GAPDH, FIG. 11): inhibited at an exposure consistent with the high affinity A1 receptor
Alkaline phosphatase (ALP) activity [1]: reduced

B1: recombinant CD73: ecto-5′-nucleotidase, converts AMP to adenosine (protein, UniProt P21589 27-549, looked up)
5'-nucleotidase: WELTILHTNDVHSRLEQTSEDSSKCVNASRCMGGVARLFTKVQQIRRAEPNVLLLDAGDQYQGTIWFTVYKGAEVAHFMNALRYDAMALGNHEFDNGVEGLIEPLLKEAKFPILSANIKAKGPLASQISGLYLPYKVLPVGDEVVGIVGYTSKETPFLSNPGTNLVFEDEITALQPEVDKLKTLNVNKIIALGHSGFEMDKLIAQKVRGVDVVVGGHSNTFLYTGNPPSKEVPAGKYPFIVTSDDGRKVPVVQAYAFGKYLGYLKIEFDERGNVISSHGNPILLNSSIPEDPSIKADINKWRIKLDNYSTQELGKTIVYLDGSSQSCRFRECNMGNLICDAMINNNLRHTDEMFWNHVSMCILNGGGIRSPIDERNNGTITWENLAAVLPFGGTFDLVQLKGSTLKKAFEHSVHRYGQSTGEFLQVGGIHVVYDLSRKPGDRVVKLDVLCTKCRVPSYDPLKMDEVYKVILPNFLANGGDGFQMIKDELLRHDSGDQDINVVSTYISKMKVIYPAVEGRIKFS
effects of exogenous ATP (osteogenic markers, apoptosis) (AVM cell cultures; exogenous enzyme added with 100 μM ATP): reduced
increase of adenosine concentration in the culture media (micromass cultures): 5 fold
concentration of adenosine in the culture media (micromass cultures; from 1.7 without enzyme): 8.7

B2: noggin: inhibitor of BMP (protein, UniProt Q13253 28-232, looked up)
Noggin: QHYLHIRPAPSDNLPLVDLIEHPDPIFDPKEKDLNETLLRSLLGGHYDPGFMATSPPEDRPGGGGGAAGGAEDLAELDQLLRQRPSGAMPSEIKGLEFSEGLAQGKKQRLSKKLRRKLQMWLWSQTFCPVLYAWNDLGSRFWPRYVKVGSCFSKRSCSVPEGMVCKPSKSVHLTVLRWRCQRRGGQRCGWIPIQYPIISECKCSC
Runx2 expression [2]: little effect
expression of other markers (Twist1, Cbfβ, MGP) [2]: lesser effects
